Key:
Aiolos = test: IMiD activity: Aiolos degradation in PBMCs by flow cytometry; format: cell-based; settings: human PBMCs, 24 hours; for Dmax: maximum percent Aiolos degradation in the assay; for DC50: compound concentration degrading 50% of Aiolos
Method: In addition, Compounds 1-24 were assayed for IMiD activity. Frozen human peripheral blood mononuclear cells (PBMCs) were thawed and treated with DMSO or compound for 24 hours and then fixed and permeabilized using a Foxp3/Transcription Factor Fixation/Permeabilization Kit (eBioscience, 00-5523). Cells were stained with fluorophore-conjugated antibodies against CD20 (Biolegend 302330), CD3 (BD Pharmingen 552127), and Aiolos (Biolegend 371106). An additional set of DMSO-treated PBMCs was stained for CD20, CD3, and an AlexaFluor 647-conjugated mouse IgG1 isotype control antibody (Biolegend 400136). Stained cells were run on an Attune NxT Acoustic Focusing Flow Cytometer (Thermo-Fisher A29004), and data was analyzed using FlowJo (v10.5.3) and GraphPad Prism (v7.00) software. Single lymphocytes were gated for B cells (CD20+CD3-) and T cells (CD3+CD20-), and the geometric mean fluorescence intensity (MFI) of Aiolos was calculated for each population. The MFI of the isotype control was calculated for each population and used to quantify background staining. Percent Aiolos degradation was calculated for each compound-treated sample using the following equation: […]
DC50 is the compound concentration degrading 50% of Aiolos. Dmax is the maximum percent Aiolos degradation in the assay.

[1] = test system: Experimental autoimmune encephalomyelitis (EAE); test: Experimental autoimmune encephalomyelitis (EAE) model; format: in vivo, C57BL/6 mice; settings: EAE, 30 mg/kg, spinal cords collected on day 22
Method: EAE was induced in C57BL/6 mice by immunization with an emulsion of MOG1-125 in complete Freund's adjuvant (CFA), followed by administration of pertussis toxin in PBS, first on the day of immunization (Day 0) and then again the following day (Day 1).
Dosing of all mice started on Day −1 and continued through Day 22. Fingolimod (FTY720, Gilenya) is the a commonly used positive control in this model.
Statistical significance was determined between vehicle control and treated groups based on the end clinical scores using Wilcoxon's non-parametric test.
Statistical analysis: Demyelination (anti-MBP) with Wilcoxon's non-parametric test; inflammatory foci or apoptosis with two-tailed Student's t-test.

| DC50 (Aiolos) | SMILES | Dmax (Aiolos) | further results |
| --- | --- | --- | --- |
| – | Cn1c(=O)n([C@@H]2CCC(=O)NC2=O)c2ccc(N3CC[C@@H](CN4CCC(c5ccc(Nc6nc(N7CCCCC7)cnc6C(N)=O)cc5)CC4)C3)cc21 [Compound 7] | 4.6% | – |
| – | CN1CCN([C@H]2CCCN(c3cnc(C(N)=O)c(Nc4ccc(N5CCN(CC#Cc6cccc7c6CN(C6CCC(=O)NC6=O)C7=O)CC5)cc4)n3)C2)C1=O (some centres unmarked) [Compound 17] | 15.1% | – |
| 0.344 µM | NC(=O)c1ncc(N2CCCCC2)nc1Nc1ccc2c(c1)CCN(CC1CCN(c3ccc(C(=O)NC4CCC(=O)NC4=O)nc3)CC1)C2 (racemic) [Compound 4, rac-3-[(2-{[1-(6-{[(3R)-2,6-dioxopiperidin-3-yl]carbamoyl}pyridin-3-yl)piperidin-4-yl]methyl}-3,4-dihydro-1H-isoquinolin-6-yl)amino]-5-(piperidin-1-yl)pyrazine-2-carboxamide] | 28.3% | – |
| – | CN1CCN([C@@H]2CCCN(c3cnc(C(N)=O)c(Nc4ccc(C5(C)CCN(C6CN(Cc7ccc8c(c7)C(=O)N(C7CCC(=O)NC7=O)C8=O)C6)CC5)cc4)n3)C2)C1=O (some centres unmarked) [Compound 16] | 23.6% | – |
| – | C=CC(=O)N1CCC[C@@H](n2nc(-c3ccc(Oc4ccccc4)cc3)c3c(N)ncnc32)C1 [Ibrutinib, reference compound] | – | Apoptotic cells/section +/− SD [1]: 0.4 +/− 0.7; Inflammatory foci/section +/− SD [1]: 1.0 +/− 1.4; Demyelination score +/− SD ([1]; anti-MBP): 0.4 +/− 0.6 |
| 0.345 µM | CN1CCN([C@H]2CCCN(c3cnc(C(N)=O)c(Nc4ccc(C5CCN(CC6CCN(c7ccc(C(=O)NC8CCC(=O)NC8=O)nc7)CC6)CC5)cc4)n3)C2)C1=O (some centres unmarked) [Compound 15] | 27.4% | – |
| – | CN1CCN([C@@H]2CCCN(c3cnc(C(N)=O)c(Nc4ccc(C5CCN(CC6CCN(c7ccc8c(c7)n(C)c(=O)n8C7CCC(=O)NC7=O)CC6)CC5)cc4)n3)C2)C1=O (some centres unmarked) [Compound 12] | 5.3% | – |
| 2.65 µM | CN1CCN([C@@H]2CCCN(c3cnc(C(N)=O)c(Nc4ccc(N5CCC6(CCCN(c7ccc8c(c7)C(=O)N(C7CCC(=O)NC7=O)C8=O)C6)CC5)cc4)n3)C2)C1=O (some centres unmarked) [Compound 18] | 28.2% | – |
| – | CN1CCN([C@@H]2CCCN(c3cnc(C(N)=O)c(Nc4ccc(C5CCN(CC6CCN(c7cnc(C(=O)NC8CCC(=O)NC8=O)nc7)CC6)CC5)cc4)n3)C2)C1=O (mixture of isomers) [Compound 3, 5-(4-((4-(4-((3-carbamoyl-6-((R)-3-(3-methyl-2-oxoimidazolidin-1-yl)piperidin-1-yl)pyrazin-2-yl)amino)phenyl)piperidin-1-yl)methyl)piperidin-1-yl)-N—((RS)-2,6-dioxopiperidin-3-yl)pyrimidine-2-carboxamide] | 3.2% | – |
| 0.596 µM | CN1CCN([C@@H]2CCCN(c3cnc(C(N)=O)c(Nc4ccc(C5CCN(CC6CCN(c7ccc(C(=O)N[C@@H]8CCC(=O)NC8=O)nc7)CC6)CC5)cc4)n3)C2)C1=O [Compound 2] | 17.9% | – |
| 0.0376 µM | NC(=O)c1ncc(N2CCCCC2)nc1Nc1ccc(N2CCC3(CCN(Cc4ccc5c(c4)C(=O)N(C4CCC(=O)NC4=O)C5=O)CC3)CC2)cc1 (centres unmarked) [Compound 14] | 30.4% | – |
| – | NC(=O)c1ncc(N2CCCCC2)nc1Nc1ccc(C2CCN(CC3CCN(c4ccc(CC5CCC(=O)NC5=O)cn4)CC3)CC2)cc1 (centres unmarked) [Compound 10] | 3.2% | – |
| 0.0966 µM | CN1CCN([C@@H]2CCCN(c3cnc(C(N)=O)c(Nc4ccc(C5CCN(C[C@H]6CC[C@@H](Nc7cccc8c7C(=O)N([C@@H]7CCC(=O)NC7=O)C8=O)CC6)CC5)cc4)n3)C2)C1=O (racemic) [Compound 9, 5-[(3R)-3-(3-methyl-2-oxoimidazolidin-1-yl)piperidin-1-yl]-3-{[4-(1-{[(1 s,4s)-4-{[2-(2,6-dioxopiperidin-3-yl)-1,3-dioxoisoindol-4-yl]amino}cyclohexyl]methyl}piperidin-4-yl)phenyl]amino}pyrazine-2-carboxamide] | 30.8% | – |
| 0.00289 µM | CN1CCN([C@@H]2CCCN(c3cnc(C(N)=O)c(Nc4ccc(C5CCN(CC6CCN(c7ccc(OC8CCC(=O)NC8=O)cn7)CC6)CC5)cc4)n3)C2)C1=O (some centres unmarked) [Compound 13] | 4.9% | – |
| – | CN1CCN([C@@H]2CCCN(c3cnc(C(N)=O)c(Nc4ccc(C5CCN(C[C@@H]6CCN(c7ccc8c(c7)n(C)c(=O)n8C7CCC(=O)NC7=O)C6)CC5)cc4)n3)C2)C1=O (mixture of isomers) [Compound 8, 3-((4-(1 (((3 S)-1-(1-(2,6-dioxopiperidin-3-yl)-3-methyl-2-oxo-2,3-dihydro-1H-benzo[d]imidazol-5-yl)pyrrolidin-3-yl)methyl)piperidin-4-yl)phenyl)amino)-5-((R)-3-(3-methyl-2-oxoimidazolidin-1-yl)piperidin-1-yl)pyrazine-2-carboxamide] | 1.0% | – |
| – | CN1CCN([C@@H]2CCCN(c3cnc(C(N)=O)c(Nc4ccc(N5CCN(C(=O)CCOCCCc6ccc7c(c6)C(=O)N(C6CCC(=O)NC6=O)C7)CC5)cc4)n3)C2)C1=O (some centres unmarked) [Compound 19] | 9.1% | – |
| – | Cn1c(=O)n([C@@H]2CCC(=O)NC2=O)c2ccc(N3CC[C@H](CN4CCC(c5ccc(Nc6nc(N7CCCCC7)cnc6C(N)=O)cc5)CC4)C3)cc21 [Compound 6] | 1.1% | – |
| – | CN1CCN([C@@H]2CCCN(c3cnc(C(N)=O)c(Nc4ccc(C5CCN(CC6CCN(c7ncc(C(=O)NC8CCC(=O)NC8=O)o7)CC6)CC5)cc4)n3)C2)C1=O (some centres unmarked) [Compound 11] | 1.9% | – |
| 0.468 µM | CN1CCN([C@@H]2CCCN(c3cnc(C(N)=O)c(Nc4ccc(C5CCN(CC6CCN(c7ccc(C(=O)NC8CCC(=O)NC8=O)cc7)CC6)CC5)cc4)n3)C2)C1=O (mixture of isomers) [Compound 5, 3-((4-(1-((1-(4-(((RS)-2,6-dioxopiperidin-3-yl)carbamoyl)phenyl)piperidin-4-yl)methyl)piperidin-4-yl)phenyl)amino)-5-((R)-3-(3-methyl-2-oxoimidazolidin-1-yl)piperidin-1-yl)pyrazine-2-carboxamide] | 10.1% | – |
